Measurements from patent US9302967B2, “Substituted cathechols as inhibitors of IL-4 and IL-5 for the treatment of bronchial asthma” (Council of Scientific & Industrial Research, priority 2011, dated 2016).
Like-named read-outs stand apart in the source and are kept apart here.

Legend:
[1] = design: species or system mice; settings: mouse, in vivo
Procedure: 14 d acute oral toxicity of compound 1 of formula I was performed. Three doses were selected: 47, 23, 12 and 0 mg/kg bw (Vehicle control) of compound 1 of formula I was administered by single oral gavage using blunt ended steel canula.
Clinical biochemistry was performed using detection kit purchased from SPINREACT, SA, Spain. The blood left after the hematological studies were allowed to clot for 2 h and serum separated by centrifugation at 3000 rpm for 5 min and subsequently used for clinical biochemistry. Details of the clinical biochemistry (Table 4) and relative organ weight (Table 5) are given below.

[2] = test system: OVA sensitized, OVA challenged mice; test: Airway hyperresponsiveness to methacholine (whole-body plethysmography), OVA mouse model of asthma; type: in vivo, BALB/c mice; settings: for AHR to Mch / lung function compared with dexamethasone: 10 mg/kg orally twice a day, DEX 0.75 mg/kg once a day; for MCh PC200 (AHR to methacholine): 0.05, 0.1, 5 and 10 mg/kg orally twice per day
Procedure: BALB/c mice (6-8 wks old, 18-22 grams) were obtained from IICB Kolkata and VPCI, Delhi. Ethical clearance has been obtained from Institutional Ethical Committee. Mice were acclimatized for at least one week under the laboratory conditions (25±2° C., 60% humidity) before starting the experiments. After one week, baseline Penh (enhanced pause) was measured in Buxco unrestrained single chamber plethysmography (WBP, Buxco, Troy, N.Y.).
Mice were sensitized with 0.2 ml PBS containing 50 μg ovalbumin (OVA) (Sigma, USA) and 4 mg aluminum hydroxide in saline intraperitonially (i.p.) on days 0, 7 and 14 as shown in FIG. 1. Sham group mice were sensitized with only alum dissolved in PBS. From day 18 to 27, mice were exposed to aerosol of OVA (3%) inhalation 25 minutes daily in a Plexiglas chamber (20×20×10 cm^3). The aerosol was generated by a nebulizer (OMRON CX model) with an airflow rate of 9 L/minute. Sham group mice were challenged with PBS alone.
Compound 1 of formula I was dissolved in 50% ethanol. So 50% ethanol was used as a vehicle. Group I was alum sensitized, saline challenged and treated with vehicle (SHAM/SAL/VEH), group II was OVA sensitized, OVA challenged and treated with 50% ethanol as vehicle (OVA/OVA/VEH), group III, IV, V, VI were OVA sensitized, OVA challenged and treated with 0.05, 0.1, 5 and 10 mg/kg compound 1 of formula I. Drug was given in the volume of 10 μl orally twice per day. Confirmatory experiments were done with two concentrations of compound 1 of formula I (5 and 10 mg/kg twice a day), and these findings were compared with parallel group of mice which were OVA-sensitized, -OVA challenged and treated orally once a day with 0.75 mg/kg Dexamethasone (OVA/OVA/DEX).
Airway responsiveness was measured by barometric plethysmography using whole-body plethysmography (WBP; Buxco, Troy, N.Y.) 12 hours after last saline or ovalbumin challenge. At the time of measurement the animals were awake and breathing spontaneously. Enhanced pause (Penh) to methacholine as measured using barometric plethysmography is a valid indicator of bronchoconstriction in mice and can be used to measure AHR (Am J Respir Crit Care Med 1997, 156, 766-775). Baseline Penh was taken initially, and then PBS followed by increasing concentrations (4-48 mg/ml) of methacholine was nebulized through an inlet of the main chamber for 3 min. Readings were taken and averaged for 5 minutes from the starting time of nebulisation. Airway responsiveness to MCh was evaluated by the concentration of MCh required to increase the Penh to twice the baseline value (MCh PC200).

[3] = 14 d acute oral toxicity: immunotoxicity (EPA guideline 1998); type: in vivo, mice; settings: for Bone marrow cell viability % / Lymph node lymphocyte viability % (pooled) / Splenocyte viability %: 14 d acute
Procedure: 14 d acute oral toxicity of compound 1 of formula I was performed. […]
Immunotoxicity in mice was performed in accordance to EPA guideline (1998). […] Humoral immunity was measured in terms of HA titer and plaque forming cell assay. […] Cell mediated immunity was measured in terms of % increase in paw volume in mice sensitized with SRBC.

[4] = test system: IL-5; test: PHA-stimulated human PBMC, IL-5 in supernatant by Cytometric Bead Array; type: cell-based; settings: PHA 10 μg/ml, read-out: IC50 inhibitory activity, stimulation-induced IL-5
Procedure: Normal human peripheral blood mononuclear cells (PBMC) were stimulated with phytohemagglutinin (PHA) 10 μg/ml in the presence and absence of varying concentrations of compounds of formula I and II. Culture supernatants were harvested and IIL-4 and IL-5 cytokines were quantitated by Cytometric Bead Array (CBA™) kit (Becton Dickinson, USA) following manufacturers instructions using a Flow Cytometer (BD LSR, Becton Dickinson) and CBA™ analysis software (Becton Dickinson).

[5] = listed as compound of formula I

C=CCc1ccc(O)c(O)c1 [Compound 1, 4-allyl-benzene-1,2-diol]
serum bilirubin vs normal range [1]: marginal rise in the serum bilirubin
Acid phosphatase ([1]; 12 mg/kg): 2.98 ± 1.2
Bilirubin ([1]; 12 mg/kg): 0.28 ± 0.30 mg/dL
Glucose ([1]; 12 mg/kg): 49 ± 0.193 mg/dL
SGOT ([1]; 12 mg/kg): 4.32 ± 1.87 U/L
SGPT ([1]; 12 mg/kg): 8.42 ± 5.8 U/L
Uric acid ([1]; 12 mg/kg): 5.89 ± 1.6 mg/dL
gammaGT ([1]; 12 mg/kg): 1.78 ± 0.68 U/L
Acid phosphatase ([1]; 23 mg/kg): 2.75 ± 0.74
Bilirubin ([1]; 23 mg/kg): 0.19 ± 0.22 mg/dL
Glucose ([1]; 23 mg/kg): 57 ± 0.12 mg/dL
SGOT ([1]; 23 mg/kg): 8.64 ± 3.74 U/L
SGPT ([1]; 23 mg/kg): 12.15 ± 5.50 U/L
Uric acid ([1]; 23 mg/kg): 7.51 ± 4.13 mg/dL
gammaGT ([1]; 23 mg/kg): 2.38 ± 1.19 U/L
Acid phosphatase ([1]; 47 mg/kg): 2.06 ± 1.52
Bilirubin ([1]; 47 mg/kg): 1.41 ± 0.3 mg/dL
Glucose ([1]; 47 mg/kg): 58 ± 0.07 mg/dL
SGOT ([1]; 47 mg/kg): 3.24 ± 2.91 U/L
SGPT ([1]; 47 mg/kg): 10.8 ± 23^ U/L
Uric acid ([1]; 47 mg/kg): 5.59 ± 2.67 mg/dL
gammaGT ([1]; 47 mg/kg): 2.38 ± 0.97 U/L
AHR to Mch / lung function compared with dexamethasone [2]: able to improve lung function almost similar to the level of dexamethasone
AHR to Mch / lung function compared with dexamethasone [2, 5]: significantly reduced the AHR to Mch as effective as DEX
MCh PC200 (AHR to methacholine) [2]: increased in a dose dependent manner
MCh PC200 (AHR to methacholine) [2, 5]: effective at higher concentrations
Bone marrow cell viability % ([3]; 12 mg/kg bw): >98%
Lymph node lymphocyte viability % (pooled) ([3]; 12 mg/kg bw): >98%
Splenocyte viability % ([3]; 12 mg/kg bw): 97.69 ± 0.96%
Bone marrow cell viability % ([3]; 23 mg/kg bw): >98%
Lymph node lymphocyte viability % (pooled) ([3]; 23 mg/kg bw): >98%
Splenocyte viability % ([3]; 23 mg/kg bw): 97.64 ± 0.73%
Bone marrow cell viability % ([3]; 47 mg/kg bw): >98%
Lymph node lymphocyte viability % (pooled) ([3]; 47 mg/kg bw): >98%
Splenocyte viability % ([3]; 47 mg/kg bw): 98.25 ± 0.92%
DTH response (cell mediated immunity) ([3]; mouse, in vivo): insignificant changes in the DTH response
viability of bone marrow cells, splenocyte and lymph node lymphocyte (trypan blue) ([3]; mouse, in vivo): No significant changes
HA tire (reciprocal of the last dilution showing positive reaction) ([3]; mouse, in vivo, 12 mg/kg): 2560
PFC ([3]; mouse, in vivo, 12 mg/kg): 10333 ± 3008 per 10^6lymphocytes
PFC and HA titre against SRBC antigen ([3]; mouse, in vivo, 21 mg/kg): did not show any significant change
DTH response (%) ([3]; mouse, in vivo, 23 mg/kg): 19.24 ± 10.5%
HA tire (reciprocal of the last dilution showing positive reaction) ([3]; mouse, in vivo, 23 mg/kg): 2560
PFC ([3]; mouse, in vivo, 23 mg/kg): 11633 ± 3636 per 10^6lymphocytes
DTH response (%) ([3]; mouse, in vivo, 47 mg/kg): 17.75 ± 9.8%
HA tire (reciprocal of the last dilution showing positive reaction) ([3]; mouse, in vivo, 47 mg/kg): 1280
PFC ([3]; mouse, in vivo, 47 mg/kg): 2800 ± 1288 per 10^6lymphocytes
IC50 ([4]; Homo sapiens): 4.5 µM
IC50 [4]: 5 µM
